# In patent US11977028B2, “Mechanical-bond-induced exciplex fluorescence” (Northwestern University, priority 2020, dated 2024):
# How the values were obtained:
# [1] = Absorption and photoluminescence spectroscopy in solution; assay type: physicochemical; settings: for absorption band (higher-energy band of the anthracene moiety) / absorption, vibronic peak of the anthracene moiety (lower-energy): high dilution; for emission band, vibronic peaks of the anthracene moiety: fluorescence spectroscopy, data not shown; for τ (emission lifetime): 405 nm excitation
# Excerpt: The close proximity of the anthracene units in the mechanically interlocked cyclophanes was expected to give rise to remarkable optical properties distinct from those of the free cyclophanes. We explored the absorption and fluorescence properties of all compounds at high dilution (4×10^−7 M) to avoid reabsorption processes^40 and aggregation effects.^17 All of the optical parameters are summarized in Tables 1 and 2. Initially, we explored the influence of the pyridine/pyridinium units on the optical properties of both ^2,6AnBox^4+ and ^9,10AnBox^4+ cyclophanes. The presence of two pyridinium units within the linker dramatically affect the optical properties of the anthracene moiety. Although ^2,6AnBPY (FIG. 5C) and ^9,10AnBPY display^41 characteristic vibronic peaks associated with the anthracene moiety at 290 and 400 nm, ^2,6AnDB^2+ and ^9,10AnDB^2+ display a shift of the band at 290 to 330 nm (FIG. 5A) and the emergence of a new featureless broad band at 450 nm associated with CT from the anthracene moiety to the pyridinium unit. It is noteworthy that phenylene-bridged bipyridyl linkers (ExBIPY) display^35 a single absorption peak at 325 nm in MeCN, while the anthracene moiety leads to the emergence of some push-pull D-A character.
# All reagents were purchased from commercial suppliers (Aldrich or Fisher) and used without further purification. Anthracene derivatives, 9,10-bis(4-pyridyl)anthracene (^9.^10AnBPY) and 2,6-bis(4-pyridyl)anthracene (^2,6AnBPY) were synthesized following^1,2 reports in the literature. All reactions and manipulations were carried out under a dry N2 atmosphere using standard Schlenk. Thin-layer chromatography (TLC) was performed on silica gel 60 F254 TLC plates (Merck). Column chromatography was carried out using CombiFlash® Automation Systems (Teledyne ISCO) employing both normal phase (RediSep Rf Gold® Normal-Phase Silica) and reverse phase (RediSep Rf Gold® Reversed-phase C18). […] All the spectra were baseline-corrected with a MeCN blank sample. The photoluminescence spectra of all samples were obtained with a Fluorolog-3 spectrafluorometer (Horiba Jobin Yvon) in a 2-mm quartz cuvette with 3-nm slit width and a front-phase geometry. The time-correlated single photon counting setup is described elsewhere.^3 Nuclear magnetic resonance (NMR) spectra were recorded on a Bruker Avance III 500 and 600 MHz spectrometers, with working frequencies of 500 and 600 MHz (′H NMR) and 125 MHz (^13C NMR), respectively. Chemical shifts are reported in ppm relative to the signals corresponding to the residual non-deuterated solvents (CD3CN: δ1−1=1.94 ppm and δC=1.32 ppm). High-resolution mass spectra (HRMS) were measured on an Agilent 6210 Time of Flight (TOF) LC-MS, using an ESI source, coupled with Agilent 1100 HPLC stack, using direct infusion (0.6 mL min ^−1). The binding constants were determined using this link: website http://supramolecular.org.^4
# MIA PACA2 cancer cells = experiment: Cell growth / toxicity by phase contrast imaging over 48 hours; assay type: cell-based; settings: any concentration tested
# Protocol: Cells were cultured for 4 hours then treated with the compounds at a range of concentrations. Upon treatment, cells were placed in a BioTek LionheartFX system, where they were imaged every 20 minutes for 48 hours, under standard culture conditions (37° C., 5% CO2). Phase contrast images were processed and analyzed with BioTek Gen5 analysis software to identify cell number at the start and end of the culture time. There was no significant difference in percent growth either between the two compounds or between the different concentrations and the untreated (0 mM) control.
# Cells were grown in standard DMEM (supplemented with 10% Fetal Bovine Serum and 1% Penicillin-Streptomycin, supplier=Corning). Cells were seeded into imaging coverglass chamber 40 hours prior to treatment. Compounds were resuspended in deionized H2O then diluted to the final concentration in media. Cells were treated with compounds for 6 hours prior to imaging.
# [2] = 1H NMR titration of guests into the ^2,6AnBox^4+ cavity (binding constant); settings: 1H NMR titration in CD3CN; for association constant Ka: without salt; for binding constant Ka: high concentration of salt (saturated with KPF6, 140 mM)
# Excerpt: The cavity of ^2,6AnBox^4+ is able to bind an anthracene molecule in a face-to-face manner as a result of [π . . . π] interactions. The formation of anthracene⊂^2,6AnBox^4+ (An⊂^2,6AnBox^4+) was confirmed by ^1H NMR titration in CD3CN. […] Further evidence for the formation of the 1:1 complex (anthracene⊂^2,6AnBox^4+) came from XRD analysis. […] It is remarkable that, upon addition of the anthracene guest to the cavity of ^2,6AnBox^4+, a tubular superstructure is formed along the c-axis, whereas along the b-axis, face-to-face [π . . . π] stacks form between the anthracene units. Apparently, the long-range [π . . . π] distances of 3.5 Å between the anthracene units are superstructure-directing in anthracene⊂^2,6AnBox^4+ instead of the anthracene-pyridinium DA interactions. The formation of the anthracene⊂^2,6AnBox^4+ complex implies that [π . . . π] interactions between the anthracene units can be sufficient to overcome the Coulombic repulsion and form the homo[2]catenane, ^2,6AnHC.8PF6.
# Preparation of ^2,6AnHC.8PF6 was achieved following two synthetic procedures which consisted of mixing ^2,6AnBox.4PF6 with its precursors ^2,6AnDB.2PF6, and ^2,6AnBPY in the absence (Protocol I) or presence (Protocol II) of tetrabutylammonium hexafluorophosphate (TBAPF6). See Scheme 6. Our attempts to prepare ^2,6AnHC.8PF6 following Protocol I produced very low yields (<5%) of the catenane.
# In order to evaluate whether the addition of salt would enhance the synthesis of the rigid ^2,6AnHC.8PF6 homo[2]catenane, we investigated the effects of the addition of tetrabutylammonium hexafluorophosphate (TBAPF6) salt on the formation of the ^2,6AnDB^2+⊂^2,6AnBox^4+ inclusion complex. […] Remarkably, the change in color of the solution from yellow to red implies^38 an increase in the strength of the ^2,6AnDB^2+⊂^2,6AnBox^4+ host-guest complex. In order to estimate the magnitude of the association constant between ^2,6AnDB^2+ and ^2,6AnBox^4+, we prepared (FIG. 2A-2C, Scheme 8) an anthracene-based dicationic model DM^2+. […] Consequently, the efficiency of the catenane synthesis is also found to be sensitive to the addition of TBAPF6. At a salt concentration of 250 mM, the homo[2]catenane ^2,6AnHC.8PF6 was prepared by mixing ^2,6AnBox.4PF6, ^2,6AnDB.2PF6, and ^2,6AnBPY in a 1:2:2 molar ratio in MeCN resulting in an isolated yield of up to 40%. See Scheme 2. The ^1H NMR spectrum of ^2,6AnHC^8+ was recorded at room temperature in CD3CN. Only three signals are observed which can be assigned to the pyridinium, methylene, and phenylene protons. All other resonances associated with the anthracene units disappear or are broadened at room temperature. In the temperature dependent 41 NMR spectra (data not shown), the signals for the anthracene protons reappear at low temperature and have been assigned based on 2D ROESY NMR spectroscopic measurements. These experiments confirm the dynamic nature of the homo[2]catenane in which the two mechanically interlocked rings undergo relative co-conformational changes at room temperature. The catenane was also characterized by high-resolution mass spectrometry (HR-MS). A characteristic peak corresponding to [M-3 PF6]^3+ is present in the mass spectrum (data no shown) at m/z of 823.7819 which compares well with the calculated value for m/z of 823.7814.
# All reagents were purchased from commercial suppliers (Aldrich or Fisher) and used without further purification. Anthracene derivatives, 9,10-bis(4-pyridyl)anthracene (^9.^10AnBPY) and 2,6-bis(4-pyridyl)anthracene (^2,6AnBPY) were synthesized following^1,2 reports in the literature. All reactions and manipulations were carried out under a dry N2 atmosphere using standard Schlenk. Thin-layer chromatography (TLC) was performed on silica gel 60 F254 TLC plates (Merck). Column chromatography was carried out using CombiFlash® Automation Systems (Teledyne ISCO) employing both normal phase (RediSep Rf Gold® Normal-Phase Silica) and reverse phase (RediSep Rf Gold® Reversed-phase C18). […]
# [3] = reported in the literature; cited from earlier work
compound,measurement,setting,value
"c1cc(-c2ccc3cc4cc(-c5ccncc5)ccc4cc3c2)ccn1 [^2,6AnBPY, 2,6-bis(4-pyridyl)anthracene, reference compound]",absorption band (higher-energy band of the anthracene moiety),[1]; MeCN,290 nm
same,"absorption, vibronic peak of the anthracene moiety (lower-energy)",[1]; MeCN,400 nm
same,"emission band, vibronic peaks of the anthracene moiety",[1],440 nm
"BrCc1ccc(C[n+]2ccc(-c3c4ccccc4c(-c4cc[n+](Cc5ccc(CBr)cc5)cc4)c4ccccc34)cc2)cc1 [^9,10AnDB^2+]",charge transfer (CT) absorption band,[1]; MeCN,450 nm
same,absorption band (higher-energy band of the anthracene moiety),[1]; MeCN,330 nm
"c1ccc2c3c4ccccc4c(c2c1)-c1cc[n+](cc1)Cc1ccc(cc1)C[n+]1ccc(cc1)-c1c2ccccc2c(c2ccccc12)-c1cc[n+](cc1)Cc1ccc(cc1)C[n+]1ccc-3cc1 [^9,10AnBox^4+]",Φ (PL quantum yield),"[1]; 4 × 10^−7 M, MeCN",1.3%
same,λabs,"[1]; 4 × 10^−7 M, MeCN",415 nm
same,λem,"[1]; 4 × 10^−7 M, MeCN",566 nm
same,τ (emission lifetime),"[1]; 4 × 10^−7 M, MeCN",8.7 ns
same,Stokes shifts (δ),"[1]; DMF, 4 × 10^−7 M",6793 cm⁻¹
same,λabs,"[1]; DMF, 4 × 10^−7 M",402 nm
same,λem,"[1]; DMF, 4 × 10^−7 M",576 nm
same,λexc,"[1]; DMF, 4 × 10^−7 M",414 nm
same,Stokes shifts (δ),"[1]; EtOH, 4 × 10^−7 M",6502 cm⁻¹
same,λabs,"[1]; EtOH, 4 × 10^−7 M",409 nm
same,λem,"[1]; EtOH, 4 × 10^−7 M",574 nm
same,λexc,"[1]; EtOH, 4 × 10^−7 M",418 nm
same,Stokes shifts (δ),"[1]; H2O, 4 × 10^−7 M",6199 cm⁻¹
same,λabs,"[1]; H2O, 4 × 10^−7 M",419 nm
same,λem,"[1]; H2O, 4 × 10^−7 M",566 nm
same,λexc,"[1]; H2O, 4 × 10^−7 M",419 nm
same,Stokes shifts (δ),"[1]; Me2SO, 4 × 10^−7 M",6966 cm⁻¹
same,λabs,"[1]; Me2SO, 4 × 10^−7 M",403 nm
same,λem,"[1]; Me2SO, 4 × 10^−7 M",570 nm
same,λexc,"[1]; Me2SO, 4 × 10^−7 M",408 nm
same,Stokes shifts (δ),"[1]; MeCN, 4 × 10^−7 M (Table 2)",6371 cm⁻¹
same,λabs,"[1]; MeCN, 4 × 10^−7 M (Table 2)",410 nm
same,λem,"[1]; MeCN, 4 × 10^−7 M (Table 2)",566 nm
same,λexc,"[1]; MeCN, 4 × 10^−7 M (Table 2)",416 nm
same,Stokes shifts (δ),"[1]; MeOH, 4 × 10^−7 M",6282 cm⁻¹
same,λabs,"[1]; MeOH, 4 × 10^−7 M",402 nm
same,λem,"[1]; MeOH, 4 × 10^−7 M",565 nm
same,λexc,"[1]; MeOH, 4 × 10^−7 M",417 nm
"[Cl-].[Cl-].[Cl-].[Cl-].c1cc2ccc1C[n+]1ccc(cc1)-c1ccc3cc4cc(ccc4cc3c1)-c1cc[n+](cc1)Cc1ccc(cc1)C[n+]1ccc(cc1)-c1ccc3cc4cc(ccc4cc3c1)-c1cc[n+](cc1)C2 [^2,6AnBox⋅4Cl]",toxicity to the cells,MIA PACA2 cancer cells,"Neither the catenane (^2,6AnHC.8Cl) nor the cyclophane (^2,6AnBox⋅4Cl) are toxic to the cells at any concentration tested"
"BrCc1ccc(C[n+]2ccc(-c3ccc4cc5cc(-c6cc[n+](Cc7ccc(CBr)cc7)cc6)ccc5cc4c3)cc2)cc1 [^2,6AnDB^2+]",association constant Ka,[2],42 M⁻¹
same,Φ (PL quantum yield),"[1]; 4 × 10^−7 M, MeCN",7.0%
same,λabs,"[1]; 4 × 10^−7 M, MeCN",453 nm
same,λem,"[1]; 4 × 10^−7 M, MeCN",542 nm
same,τ (emission lifetime),"[1]; 4 × 10^−7 M, MeCN",10 ns
same,charge transfer (CT) absorption band,[1]; MeCN,450 nm
same,absorption band (higher-energy band of the anthracene moiety),[1]; MeCN,330 nm
same,concentration dependence of excimer/exciplex emission,[1]; from high concentration to high dilution (10^−8 M),absence of excimer emission at high concentration
"c1ccc2c(-c3ccncc3)c3ccccc3c(-c3ccncc3)c2c1 [^9,10AnBPY, 9,10-bis(4-pyridyl)anthracene, reference compound]",absorption band (higher-energy band of the anthracene moiety),[1]; MeCN,290 nm
same,"absorption, vibronic peak of the anthracene moiety (lower-energy)",[1]; MeCN,400 nm
same,"emission band, vibronic peaks of the anthracene moiety",[1],440 nm
c1ccc(C[n+]2ccc(-c3ccc4cc5cc(-c6ccncc6)ccc5cc4c3)cc2)cc1 [MM^+],binding constant Ka,[2],540 M⁻¹
same,association constant Ka,[2],102 M⁻¹
c1ccc(C[n+]2ccc(-c3ccc4cc5cc(-c6cc[n+](Cc7ccccc7)cc6)ccc5cc4c3)cc2)cc1 [DM^2+],binding constant Ka,[2],611 M⁻¹
same,association constant Ka,[2],40 M⁻¹
"c1ccc2cc3ccccc3cc2c1 [anthracene, reference compound]",association constant Ka,[2],125 M⁻¹
same,emission lifetime,[3],~18 ns
